Reference: patent US3989746A, “Substituted naphthyl anthranilic acids” (Ikeda Mohando Co., Ltd., priority 1972, dated 1976)

Columns and labels:
male mice = experiment: in vivo; settings: 7 days
Protocol: (§1) With respect to the foregoing test compounds, the acute toxicity was examined by employing mice according to the following method.
(§2) Groups of male mice of the dd type having a body weight of 18 to 22 g, each, group consisting of 5 mice, were tested to determine the acute toxicity. The test compound was orally administered in a dosage indicated in Table 3a in the form suspended in 5% gum arabic liquor. The determination was conducted 7 days after the administration. Further, the LD50 values were calculated according to the method of Lichfield-Wilcoxon.

Adjuvant arthritis = experiment: Adjuvant arthritis; format: in vivo, rats (female, Wister type); settings: 9 mg/Kg per day oral for 25 days, foot volume on 23rd day from adjuvant injection; for inhibition in vivo at 9 mg/kg: Rattus norvegicus, 552 h, read-out: Anti-Inflammatory Effect Control Ratio, Adjuvant Arthritis
Protocol: With respect to the foregoing compounds, anti-inflammatory effects against carragheenin foot edema, ultraviolet erythema and adjuvant arthritis were tested by using rate according to the following methods to obtain results shown below.
The test was conducted according to a modification of the method of B. B. Newbould (Brit. J. Pharmacol., 21, 127 (1963)). Groups of female rats of the Wister type having a body weight of 180 - 240 g, each group consisting of 4 to 8 rats, were tested. 0.05 ml of an adjuvant (formed by suspending 5 mg of dead tuberculous bacillus, Aoyama B strain, in 1 ml of fluid paraffin according to the Japanese pharmacopoeia) was hypodermically injected in the right foot heel of each rat. A test compound was orally administered in a dosage of 9 mg/Kg per day in the form suspended in a 5% gum arabic liquor continuously for 25 days from one day before the injection of the adjuvant. In the case of the control group, only a 5% gum arabic liquor was continuously administered in the same manner. The volume of the right foot was measured 1 day before the injection of the adjuvant and on the 23rd day from the injection of the adjuvant with respect to each group. Thus, the increase of the foot volume was calculated in either the test compound-administered group or the control group, and the ratio of control of the adjuvant arthritis was calculated according to the following formula: [formula] in which C is the increase of the volume of the right foot in the control group and D indicates the increase of the volume of the right foot in the test compound-administered rat group.

inflammatory pain = experiment: Analgesic effect on inflammatory pain (modified Randall and Selitto); format: in vivo, rats (male, Wister type); settings: 100 mg/Kg oral, 1 hour before carragheenin; pain measured 3 hours after injection
Protocol: Groups of male rats of the Wister type having a body weight of about 150 g were tested, each group consisting of 5 rats. The rats were caused to abstain from food overnight, and 0.05 ml of a 1% carragheenin solution was hypodermically injected into the right hind leg of each rat. […] The test compound was orally administered in a dosage of 100 mg/Kg 1 hour before the injection of carragheenin. [formula]

Carragheenin foot edema = experiment: Carragheenin foot edema; format: in vivo, rats (male, Wister type); settings: 100 mg/Kg oral, 1 h before carragheenin, foot volume 3 h after injection; for inhibition in vivo at 100 mg/kg: Rattus norvegicus, read-out: Anti-Inflammatory Effect Control Ratio, Carragheenin Foot Edema
Protocol: a. Carragheenin food edema
The test was conducted according to the method of C. […] Groups of rats (male rats of the Wister type having a body weight of 140-170 g), each group consisting of 5 to 11 rats, were caused to abstain from food for 16 hours, and a 4% gum arabic suspension of a test compound was orally administered to the rats in an amount of 100 mg/Kg. of the test compounds. Immediately, rats were allowed to drink 5 ml of purified water. […] After 3 hours had passed from the injection, the volume of the right foot was measured again to determine the increase of the volume of the right foot. In control groups, only a 4% gum arabic liquor free of a test compound was orally administered, and subsequent procedures were conducted similarly to determine the increase of the volume of the right foot. The carragheenin foot edema control ratio was calculated according to the following formula: [formula] wherein C indicates the foot volume increase in the control group and D indicates the foot volume increase in the test compound-administered group.

Ultraviolet erythema = experiment: Ultraviolet erythema; format: in vivo, guinea pigs (male, Hartley type); settings: 10 mg/Kg oral, 1 h before irradiation, read 3 h after irradiation; for inhibition in vivo at 10 mg/kg: Cavia porcellus, light or radiation study, read-out: Anti-Inflammatory Effect Control Ratio, Ultraviolet Erythema
Protocol: The test was conducted according to a modification of the method of C. […] Groups of guinea pigs (male guinea pigs of the Hartley type having a body weight of 300 to 450 g), each group consisting of 5 to 10 guinea pigs, were employed for the test. Hairs were removed from backs of the guinea pigs by an electric hair-clipper and a depilatory agent. The guinea pigs were caused to abstain from food for 18 to 19 hours, and a test compound was orally administered in an amount of 10 mg/Kg in the form suspended in a 4% gum arabic liquor. In the case of control groups, only a 4% gum arabic liquor was administered. An adhesive plaster according to the Japanese pharmacopoeia, on which three small holes having a diameter of 5 mm were opened, was applied to the hair-removed portion of the back. […] When 3 hours had passed from the irradiation, the degree of the formation of erythema was determined. One point was given to the guinea pig on which a definite round erythema was formed, a point of 0.5 was given to the guinea pig on which formation of erythema was observed but its contour was not definite, and a point of 0 was given to the guinea pig on which no erythema was formed. Total points were calculated in both the test compound-administered group and the control group, and the control ratio was calculated from these total points. [formula]

in vivo [1] = settings: mouse, in vivo, po
Protocol: as §1, §2

in vivo [2] = settings: rat, po

Row | SMILES | Number of Dead Mice/Number of Mice Tested (male mice; 1 g/kg oral) | Number of Dead Mice/Number of Mice Tested (male mice; 2 g/kg oral) | Number of Dead Mice/Number of Mice Tested (male mice; 3 g/kg oral) | Number of Dead Mice/Number of Mice Tested (male mice; 4 g/kg oral) | inhibition in vivo at 9 mg/kg (Adjuvant arthritis) | Analgesic Coefficient (inflammatory pain) | inhibition in vivo at 100 mg/kg (Carragheenin foot edema) | inhibition in vivo at 10 mg/kg (Ultraviolet erythema) | LD50 at 168 h (in vivo [1]) | LD50 (in vivo [2]) | Anti-Inflammatory Effect Control Ratio, Adjuvant Arthritis (Adjuvant arthritis) | Anti-Inflammatory Effect Control Ratio, Carragheenin Foot Edema (Carragheenin foot edema) | Anti-Inflammatory Effect Control Ratio, Ultraviolet Erythema (Ultraviolet erythema)
1 | O=C(O)c1ccccc1Nc1c(F)ccc2ccccc12 [Compound 4, N-(2-fluoro-1-naphthyl)anthranilic acid] | 0 / 5 | 0 / 5 | 5 / 5 | 5 / 5 | 50% | 1.60 | 27.6% | 48.7% | – | – | – | – | –
2 | Cc1cccc(Nc2ccccc2C(=O)O)c1C [Compound M, mefenamic acid, reference compound] | 5 / 5 | 5 / 5 | – | – | 48.1% | 1.50 | 50.6% | 38.1% | – | – | – | – | –
3 | CCCCc1ccc2ccccc2c1Nc1ccccc1C(=O)O [N-(2-butyl-naphthyl-1-anthranilic acid] | 0 /10 | 0 /10 | 0 /10 | – | 26.2% | 1.38 | 31% | 50.3% | – | – | – | – | –
4 | Cc1cc(Nc2ccccc2C(=O)O)c2ccccc2c1C [Compound 6, N-(3,4-dimethyl-1-naphthyl)anthranilic acid] | 0 / 5 | 2 / 5 | 5 / 5 | 5 / 5 | 17.2% | 1.28 | 47.1% | 17.1% | – | – | – | – | –
5 | O=C(O)c1ccccc1Nc1c(Cl)cc(Cl)c2ccccc12 [Compound 2, N-(2,4-dichloro-1-naphthyl)anthranilic acid] | 0 / 5 | 0 / 5 | 0 / 5 | 0 / 5 | 53.5% | 1.70 | 27% | 68.9% | > 12000 mg/kg | 8500 mg/kg | – | – | –
6 | O=C(O)c1ccccc1Nc1c(Cl)cc(Br)c2ccccc12 [Compound 8, N-(2-chloro-4-bromo-1-naphthyl)anthranilic acid] | 0 / 5 | 0 / 5 | 0 / 5 | 4 / 5 | 31.2% | 1.72 | 27.6% | 77.3% | – | – | – | – | –
7 | O=C(O)c1ccccc1Nc1ccc(Cl)c2ccccc12 [Compound 1, n-(4-chloro-1-naphthyl)anthranilic acid] | 0 / 5 | 0 / 5 | 0 / 5 | 3 / 5 | 7.5% | 1.36 | 25.7% | 38% | > 12000 mg/kg | > 10000 mg/kg | – | – | –
8 | Cc1cc(Nc2ccccc2C(=O)O)c2ccccc2c1 [Compound 9, N-(3-methyl-1-naphthyl)anthranilic acid] | 0 / 5 | 3 / 5 | 5 / 5 | – | – | – | 44.3% | 46.3% | – | – | – | – | –
9 | CC(C)Cc1ccc(Nc2ccccc2C(=O)O)c2ccccc12 [4 iso Butyl-, N-(4-isobutyl-naphthyl-1)anthranilic acid] | 0 /10 | 0 /10 | 2 /10 | – | – | 1.37 | – | – | – | – | 31.0% | 41.9% | 43.8%
10 | O=C(O)c1ccccc1Nc1cc(Cl)cc2ccccc12 [Compound 5, N-(3-chloro-1-naphthyl)anthranilic acid] | 0 / 5 | 0 / 5 | 4 / 5 | 5 / 5 | 41.4% | 1.31 | 31.4% | 40% | – | – | – | – | –
11 | O=C(O)c1ccccc1Nc1c(Cl)ccc2ccccc12 [Compound 3, N-(2-chloro-1-naphthyl)anthranilic acid] | 0 / 5 | 2 / 5 | 4 / 5 | 5 / 5 | 36.9% | 1.62 | 46.6% | 66.7% | – | – | – | – | –
12 | CCc1ccc(Nc2ccccc2C(=O)O)c2ccccc12 [4 Ethyl-] | 0 /10 | 2 /10 | 4 /10 | – | – | 1.20 | – | – | – | – | 21.5% | 46.2% | 60.0%
13 | CCCCCCc1ccc2ccccc2c1Nc1ccccc1C(=O)O [2 Hexyl-, N-(2-n-hexyl-naphthyl-1)anthranilic acid] | 0 /10 | 0 /10 | 0 /10 | – | – | 1.28 | 8.5% | 44% | – | – | – | – | –
14 | O=C(O)c1ccccc1Nc1cc(F)cc2ccccc12 [Compound 7, N-(3-fluoro-1-naphthyl)anthranilic acid] | – | 1 / 5 | 5 / 5 | – | 36.1% | 1.70 | 35.4% | 44% | – | – | – | – | –
15 | CCCCc1ccc(Nc2ccccc2C(=O)O)c2ccccc12 [4 Butyl-] | 0 /10 | 0 /10 | 5 /10 | – | – | 1.41 | – | – | – | – | 1.3% | 16.8% | 22.3%
